Source: patent US7973034B2, “Amide, aryl sulfonamide, aryl urea, and α,β-diketone derived carboxylesterase inhibitors, and their methods of use” (priority 2003, dated 2011)
Like-named read-outs stand apart in the source and are kept apart here.

How the values were obtained:
[1] = target: T1, human liver carboxylesterase (hCE1) (Homo sapiens, UniProt P23141); test: biochemical; type: biochemical; conditions: o-NPA as substrate
T1 sequence (P23141 18-567): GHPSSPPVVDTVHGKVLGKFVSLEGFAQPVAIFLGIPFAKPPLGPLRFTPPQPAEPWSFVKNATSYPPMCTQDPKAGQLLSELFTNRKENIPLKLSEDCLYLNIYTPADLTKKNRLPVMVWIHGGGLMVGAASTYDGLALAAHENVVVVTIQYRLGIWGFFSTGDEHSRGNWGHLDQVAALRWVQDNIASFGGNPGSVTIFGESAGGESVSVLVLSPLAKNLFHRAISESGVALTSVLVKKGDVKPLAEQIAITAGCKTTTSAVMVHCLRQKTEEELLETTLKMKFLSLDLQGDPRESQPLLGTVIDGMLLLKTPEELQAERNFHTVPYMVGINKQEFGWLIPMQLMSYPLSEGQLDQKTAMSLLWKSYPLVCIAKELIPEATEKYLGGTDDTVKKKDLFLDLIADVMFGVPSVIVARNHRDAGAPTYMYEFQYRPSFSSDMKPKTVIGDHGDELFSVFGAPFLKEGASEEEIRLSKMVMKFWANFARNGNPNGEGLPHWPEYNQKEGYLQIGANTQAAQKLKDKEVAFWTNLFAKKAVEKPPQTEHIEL

[2] = target: T2, rabbit liver carboxylesterase (rCE) (Oryctolagus cuniculus, UniProt P12337); test: biochemical; type: biochemical; conditions: o-NPA as substrate
T2 sequence (P12337 19-565): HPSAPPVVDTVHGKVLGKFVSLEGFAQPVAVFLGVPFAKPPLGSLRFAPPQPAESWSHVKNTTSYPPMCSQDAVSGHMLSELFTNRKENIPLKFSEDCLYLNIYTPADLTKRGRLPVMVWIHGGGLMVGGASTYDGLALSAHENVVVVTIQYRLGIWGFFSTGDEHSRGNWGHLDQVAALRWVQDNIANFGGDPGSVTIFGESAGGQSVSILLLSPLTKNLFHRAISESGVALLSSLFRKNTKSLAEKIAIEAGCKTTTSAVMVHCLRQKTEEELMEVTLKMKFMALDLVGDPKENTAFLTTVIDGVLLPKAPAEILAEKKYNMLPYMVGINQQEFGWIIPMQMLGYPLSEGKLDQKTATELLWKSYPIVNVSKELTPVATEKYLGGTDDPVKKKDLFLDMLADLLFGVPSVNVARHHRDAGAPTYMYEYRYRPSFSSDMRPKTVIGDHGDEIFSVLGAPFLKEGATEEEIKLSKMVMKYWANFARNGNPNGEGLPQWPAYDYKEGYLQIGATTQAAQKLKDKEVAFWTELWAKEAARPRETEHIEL

[3] = target: T3, human acetylcholinesterase (hAcChE) (Homo sapiens, UniProt P22303); test: biochemical; type: biochemical
T3 construct: purchased Sigma Biochemicals (St. Louis, Mo.)
T3 sequence (P22303 32-614): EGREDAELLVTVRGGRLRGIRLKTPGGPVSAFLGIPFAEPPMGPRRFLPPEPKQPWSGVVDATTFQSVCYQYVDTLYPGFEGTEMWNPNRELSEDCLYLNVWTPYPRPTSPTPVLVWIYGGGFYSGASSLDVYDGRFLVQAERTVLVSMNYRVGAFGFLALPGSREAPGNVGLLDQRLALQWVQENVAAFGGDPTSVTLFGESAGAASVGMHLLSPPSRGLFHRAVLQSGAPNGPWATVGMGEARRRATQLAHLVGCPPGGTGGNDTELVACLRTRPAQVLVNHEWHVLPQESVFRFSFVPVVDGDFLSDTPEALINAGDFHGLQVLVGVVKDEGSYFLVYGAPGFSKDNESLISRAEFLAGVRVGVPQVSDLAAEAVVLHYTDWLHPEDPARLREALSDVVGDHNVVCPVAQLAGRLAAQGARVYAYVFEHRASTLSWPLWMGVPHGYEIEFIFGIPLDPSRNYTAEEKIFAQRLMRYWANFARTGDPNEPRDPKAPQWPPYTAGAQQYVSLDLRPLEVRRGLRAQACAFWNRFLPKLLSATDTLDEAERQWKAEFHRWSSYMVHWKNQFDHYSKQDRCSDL
Method: Data was transferred to GraphPad Prism software, and Ki values were calculated as described in the Example above.

[4] = target: human butyrylcholinesterase (hBuChE) (Homo sapiens, UniProt P06276); test: biochemical
Sequence of human butyrylcholinesterase (hBuChE) (P06276 29-602): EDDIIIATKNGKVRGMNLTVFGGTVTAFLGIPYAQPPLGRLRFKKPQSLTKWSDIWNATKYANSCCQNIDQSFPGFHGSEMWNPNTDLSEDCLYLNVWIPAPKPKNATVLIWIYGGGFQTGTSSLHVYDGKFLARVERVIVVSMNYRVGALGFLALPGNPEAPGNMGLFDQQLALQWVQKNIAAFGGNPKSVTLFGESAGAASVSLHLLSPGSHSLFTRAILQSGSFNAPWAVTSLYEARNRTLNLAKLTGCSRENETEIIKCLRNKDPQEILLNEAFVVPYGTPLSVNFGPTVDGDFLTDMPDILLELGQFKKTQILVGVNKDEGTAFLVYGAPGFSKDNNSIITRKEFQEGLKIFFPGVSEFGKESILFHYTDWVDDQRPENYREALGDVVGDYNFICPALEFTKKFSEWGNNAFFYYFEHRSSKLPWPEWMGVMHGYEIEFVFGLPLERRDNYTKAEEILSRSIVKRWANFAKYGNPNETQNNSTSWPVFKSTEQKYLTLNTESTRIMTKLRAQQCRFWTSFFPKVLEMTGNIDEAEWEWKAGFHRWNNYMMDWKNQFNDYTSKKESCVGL

carboxylesterases = test: General carboxylesterase inhibition; type: biochemical
Method: Carboxylesterase (CE) inhibition was determined by a spectroscopic assay using o-nitrophenyl acetate (o-NPA) as a substrate. Recombinant CEs produced from expression in Spodoptera frugiperda Sf9 insect cells via baculovirus were purified from serum-free culture media for the enzyme inhibition studies. Enzymes were incubated in 200 μl of 50 mM Hepes (pH 7.4) containing 3 mM o-NPA. Conversion of the o-NPA to nitrophenol was monitored by measuring the change in the absorbance at 420 nm. Absorbance readings were taken every 15 seconds for 2 minutes, and data transferred to a computer data spreadsheet. […] The final DMSO concentration was always 1% or less. […] The above procedure was then repeated using the same assay, with inhibitor concentrations ranging from 1 nM to 100 μM. Results were then transferred to Prism software (GraphPad Software, Inc., San Diego, Calif.) and Ki values determined using sigmoidal curve fits of the data. Routinely, all analyses were performed in duplicate, and Ki values determined using at least 8 inhibitor concentrations.

[5] = target: T4, human small intestine carboxylesterase (hiCE) (Homo sapiens, UniProt O00748); test: biochemical; type: biochemical; conditions: for Ki / Ki (hCE1)/Ki (hiCE): o-NPA as substrate; for Ki: Table 5, read-out: Ki hiCE; for Ki (hCE1)/Ki (hiCE): selectivity ratio
T4 sequence (O00748 27-559): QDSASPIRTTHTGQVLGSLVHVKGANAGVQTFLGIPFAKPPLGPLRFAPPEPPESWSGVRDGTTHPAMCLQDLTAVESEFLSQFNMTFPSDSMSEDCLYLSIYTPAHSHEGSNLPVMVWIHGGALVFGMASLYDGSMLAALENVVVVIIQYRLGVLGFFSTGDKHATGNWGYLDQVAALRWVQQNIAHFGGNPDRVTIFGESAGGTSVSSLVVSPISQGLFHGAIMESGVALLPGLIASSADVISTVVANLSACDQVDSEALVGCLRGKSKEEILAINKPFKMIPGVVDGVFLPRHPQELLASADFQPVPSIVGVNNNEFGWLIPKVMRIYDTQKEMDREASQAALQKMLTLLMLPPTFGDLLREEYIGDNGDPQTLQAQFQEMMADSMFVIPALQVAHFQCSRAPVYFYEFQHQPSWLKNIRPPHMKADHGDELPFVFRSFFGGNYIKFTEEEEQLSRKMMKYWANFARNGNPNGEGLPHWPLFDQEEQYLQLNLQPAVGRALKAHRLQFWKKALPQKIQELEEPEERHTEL

hiCE = target: T5, hiCE (Homo sapiens, UniProt O00748); test: Inhibition of hiCE-mediated activation of CPT-11 (SN-38 by HPLC); type: biochemical
T5 sequence (O00748 27-559): T4 sequence (O00748 27-559)
Method: Since the sulphonamide compounds identified herein are competitive inhibitors of hiCE, their activity is dependant upon the substrate used. To access the ability of these compounds to inhibit the hiCE-mediated activation of CPT-11, Ki values were determined using CPT-11 as the substrate.
CPT-11 concentrations were fixed at […], and inhibitor concentrations varied from 1 nM to 10 μM. Following incubation for an hour at 37° C., the levels of SN-38 in the reaction mixture was determined by High Performance Liquid Chromatography (HPLC).

[6] = target: T6, human intestinal carboxylesterase in U373MGhiCE cells (Homo sapiens, UniProt O00748); test: Inhibition of intracellular carboxylesterase in U373MGhiCE cells; type: cell-based
T6 construct: expressed in transfected cells; host or cells: U373MG human glioma cells (U373MGhiCE)
T6 sequence (O00748 27-559): T4 sequence (O00748 27-559)
Method: To monitor the ability of the compounds to cross the cell membrane and inhibit carboxylesterase activity intracellularly, an assay using human tumor cells expressing hiCE was devised. U373MGhiCE (a human glioma cell line transfected with a plasmid expressing hiCE) were plated in T25 flasks and allowed to grow to confluency (approximately 2-5×10^5 cells). Inhibitors were then added at a final concentration of […], and incubation allowed to continue for 1 hour. At this time, the cells were washed extensively with 5 ml of complete media and 2×5 ml of Hanks balanced salt solution, and cell extracts were prepared. Carboxylesterase activity was then determined using o-NPA as a substrate.
Table 8 sets forth the level of intracellular enzyme inhibition following incubation of human glioblastoma tumor cells expressing human intestinal carboxylesterase with 10 μM of each compound identified in Table 3.

[7] = Table 6, read-out: hCE1 Ki ± SE
[8] = acetylthiocholine as substrate, Table 6, read-out: hAcChE Ki
[9] = butyrylthiocholine as substrate, Table 6, read-out: hBuChE Ki
[10] = acetylthiocholine substrate, Table 5, read-out: Ki hAcChE
[11] = CPT-11 as substrate (100 μm), 1 hour at 37° C., read-out: Ki hiCE

SMILES | Ki [1, 7] [nM] | Ki ([2]; Table 6, read-out: rCE Ki ± SE) [nM] | Ki [3, 8] [nM] | found to be general carboxylesterase inhibitors (carboxylesterases) | Ki [4] [nM] | also measured
O=C(O)c1ccc(C(=O)C(=O)c2ccccc2)cc1 [Compound 1, 4-[oxo(phenyl)acetyl]benzoic acid] | 524 ± 46 | 64 ± 6.2 | > 100000 | general carboxylesterase inhibitors | – | Ki [4, 9]: > 100000 nM
O=C(C(=O)c1ccc(CBr)cc1)c1ccccc1 [Compound 3] | 77.6 ± 5.5 | 15 ± 1.6 | – | general carboxylesterase inhibitors | > 100000 | –
Cc1ccc(C(=O)C(=O)c2ccccc2)cc1C [Compound 5, 1-(3,4-dimethylphenyl)-2-phenylethane-1,2-dione] | 99.1 ± 10 | 108 ± 8.8 | > 100000 | general carboxylesterase inhibitors | > 100000 | –
COc1ccc(C(=O)C(=O)c2ccccc2)cc1 [Compound 6, 1-(4-methoxyphenyl)-2-2phenylethane-1,2-dione] | 175 ± 8.5 | 200 ± 60 | > 100000 | general carboxylesterase inhibitors | > 100000 | –
Cc1ccc(C(=O)C(=O)c2ccccc2)cc1[N+](=O)[O-] [Compound 7, 1-(4-methyl-3-nitrophenyl)-2-phenylethane-1,2-dione] | 295 ± 9.6 | 11.9 ± 1.1 | > 100000 | general carboxylesterase inhibitors | > 100000 | –
O=C(C(=O)c1ccc([N+](=O)[O-])cc1)c1ccccc1 [Compound 14, 1-(4-nitrophenyl)-2-phenylethane-1,2-dione] | 215 ± 24 | 21.7 ± 2.5 | > 100000 | general carboxylesterase inhibitors | > 100000 | –
O=C(C(=O)c1ccc(F)cc1)c1ccc(F)cc1 [Compound 16, 1,2-bis(4-fluorophenyl)ethane-1,2-dione] | – | – | – | general carboxylesterase inhibitors | – | –
Cc1ccc(C(=O)C(=O)c2ccc(C)cc2)cc1 [Compound 17, 1,2-bis(4-methylphenyl)ethane-1,2-dione] | 532 ± 35 | 49.6 ± 6.8 | > 100000 | general carboxylesterase inhibitors | – | Ki [4, 9]: > 100000 nM
O=C(C(=O)c1cc(F)cc(F)c1)c1cc(F)cc(F)c1 [Compound 19, 1,2-bis(3,5-difluorophenyl)ethane-1,2-dione] | – | – | – | general carboxylesterase inhibitors | – | –
O=C(C(=O)c1cc(F)c(F)c(F)c1)c1cc(F)c(F)c(F)c1 [Compound 20, 1,2-bis(3,4,5-trifluorophenyl)ethane-1,2-dione] | – | – | – | general carboxylesterase inhibitors | – | –
Cc1ccc(C(=O)C(=O)c2ccc(Cl)cc2)cc1 [Compound 22, 1-(4-chlorophenyl)-2-(4-methylphenyl)ethane-1,2-dione] | 160 ± 32 | 16.2 ± 1.7 | – | general carboxylesterase inhibitors | > 100000 | –
O=C(C(=O)c1cccs1)c1cccs1 [Compound 23, 1,2-dithien-2-yl-ethane-1,2-dione] | – | – | – | general carboxylesterase inhibitors | – | –
O=S(=O)(Nc1c(Cl)c(Cl)c(NS(=O)(=O)c2ccccc2)c(Cl)c1Cl)c1ccccc1 [Compound 44, N-{2,3,5,6-tetrachloro-4-[(phenylsulfonyl)amino]phenyl}benzene sulfonamide] | – | – | – | – | > 100000 | change in apparent Vmax of hiCE ([5]; 149 nM or 447 nM inhibitor): no change; Ki [5]: 451 ± 39 nM; Ki (hCE1)/Ki (hiCE) [5]: >220; Ki ([1]; Table 5, read-out: Ki hCE1): > 100000 nM; Ki ([2]; Table 5, read-out: Ki rCE): > 100000 nM; Ki [3, 10]: > 100000 nM; Ki (hiCE; [11]): > 100000 nM; inhibition at 10 µM [6]: 0.6%
O=S(=O)(Nc1ccc(NS(=O)(=O)c2ccc(Cl)cc2)cc1)c1ccc(Cl)cc1 [Compound 45, 4-chloro-N-(4-{[(4-chlorophenyl)sulfonyl]amino}phenyl) benzenesulfonamide] | – | – | – | – | > 100000 | Ki [5]: 53.3 ± 5.5 nM; Ki (hCE1)/Ki (hiCE) [5]: >250; Ki ([1]; Table 5, read-out: Ki hCE1): 13700 nM; Ki ([2]; Table 5, read-out: Ki rCE): 1200 nM; Ki [3, 10]: > 100000 nM; Ki (hiCE): 141 ± 64 nM; inhibition at 10 µM [6]: 7.5%
O=S(=O)(Nc1ccc(Oc2ccccc2)cc1)c1ccc(Br)cc1 [Compound 46, 4-bromo-N-(4-phenoxyphenyl)benzenesulfonamide] | – | – | – | – | > 100000 | Ki [5]: 165 ± 33 nM; Ki (hCE1)/Ki (hiCE) [5]: >600; Ki ([1]; Table 5, read-out: Ki hCE1): > 100000 nM; Ki ([2]; Table 5, read-out: Ki rCE): 319 ± 37 nM; Ki [3, 10]: > 100000 nM; Ki (hiCE; [11]): > 100000 nM; inhibition at 10 µM [6]: 0%
O=C(NC(Cc1ccccc1)C(=O)Oc1ccc2ccccc2c1)c1ccccc1 (centres unmarked) [Compound 57, 2-Benzoylamino-3-phenyl-propionic acid naphthalene-2-yl ester] | – | – | – | – | – | Ki [5]: 61 nM; Ki ([1]; Table 5, read-out: Ki hCE1): > 100000 nM; Ki [3, 10]: > 100000 nM; inhibition at 10 µM [6]: 24.2%
